Test results from article PMC7949139, “The molecular basis of OH-PCB estrogen receptor activation” (The Journal of Biological Chemistry, 2021).
Positions count from the first letter of the chain named. Where two headings read alike, the source gives them in different places.

Tests used:
SULT1E1 F80A/F75A = target: T1, SULT1E1 F80A/F75A (Homo sapiens, UniProt P49888, F75A/F80A); assay: Initial-rate studies (1-HP sulfonation; OH-PCB1 inhibition), double mutant; format: biochemical
T1 construct: E. coli codon-optimized SULT1E1 coding region inserted into the PreScission Protease cleavage site; His/GST/MBP triple tag (N, cleaved yes); made in house; host or cells: E. coli BL21(DE3)
T1 sequence (P49888 1-294 F75A/F80A): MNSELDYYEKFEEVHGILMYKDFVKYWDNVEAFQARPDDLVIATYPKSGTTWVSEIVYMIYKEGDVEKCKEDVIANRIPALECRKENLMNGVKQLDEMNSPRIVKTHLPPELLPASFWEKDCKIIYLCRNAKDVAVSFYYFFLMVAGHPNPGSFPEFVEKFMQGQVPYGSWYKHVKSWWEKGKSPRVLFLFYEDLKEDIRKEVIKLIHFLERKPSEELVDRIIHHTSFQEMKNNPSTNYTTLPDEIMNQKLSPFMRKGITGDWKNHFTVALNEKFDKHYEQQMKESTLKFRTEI
Description: (§1) C. Reaction progress was monitored via the fluorescence change associated with 1-HP sulfonation (λex = 325 nm, λem = 370 nm ([51], [52])). Initial rates were measured during conversion to product of ≤5% of the concentration-limiting substrate consumed at the reaction endpoint. Velocities were determined in triplicate. Km and kcat were obtained by (1/v^4)-weighted least-squares fitting of the averaged data in double-reciprocal space (i.e., 1/v versus 1/[S]) ([66], [67]).
(§2) Inhibition studies were performed as described above except: 1-HP was fixed (2.0 μM, 100 × Km), OH-PCBs were added (0.20–20 × Ki), and SULT1E1 was 0.20 nM (active sites). Ki was determined by least-squares fitting to a noncompetitive inhibition model ([66], [67]).

SULT1E1 Y239A = target: T2, SULT1E1 Y239A (Homo sapiens, UniProt P49888, Y239A); assay: Initial-rate studies (1-HP sulfonation; OH-PCB1 inhibition), Y239A mutant; format: biochemical
T2 construct: E. coli codon-optimized SULT1E1 coding region inserted into the PreScission Protease cleavage site; His/GST/MBP triple tag (N, cleaved yes); made in house; host or cells: E. coli BL21(DE3)
T2 sequence (P49888 1-294 Y239A): T1 sequence (P49888 1-294 F75A/F80A) with A75F, A80F, Y239A
Description: as §1, §2

SULT1E1 = target: T3, SULT1E1 (Homo sapiens, UniProt P49888); assay: Equilibrium binding studies (SULT1E1 intrinsic fluorescence); settings: for Kd: pH 7.4, 25 °C, spread = one SD
T3 construct: E. coli codon-optimized SULT1E1 coding region inserted into the PreScission Protease cleavage site; His/GST/MBP triple tag (N, cleaved yes); made in house; host or cells: E. coli BL21(DE3)
T3 sequence (P49888 1-294): T1 sequence (P49888 1-294 F75A/F80A) with A75F, A80F
Description: The binding of inhibitors to WT and mutant SULT1E1 was monitored via ligand-induced changes in the intrinsic fluorescence of the enzyme (λex= 290 nm, λem= 340 nm) ([4]). […] C. Titrations were performed in triplicate and the averaged data were least-squares fit to the following quadratic, single-site binding model: Io − ΔI∙(([L]+Etot + Kd) − [([L]+Etot + Kd)^2 − (4∙[L]∙Etot)]^1/2)/2∙Etot, where Io and ΔI represent fluorescent intensity at zero and infinite [L].

[1] = test system: estrogen receptor (ER) activation in (-) SULT1E1 control Ishikawa cells; assay: Estrogen receptor activation (alkaline phosphatase activity), control strain; format: cell-based; settings: Homo sapiens, Control cell line, OH-PCB titration at 10 nM E2 (footnote a), NE = No Effect, read-out: Ligand EC50, ER activation
Description: (§3) pcDNA 3.1 constructs harboring either the SULT1E1 WT or double mutant (F75A/F80A) coding regions were generated using Gibson Assembly ([74]). The vectors were linearized using BGIII. Ishikawa cells were grown at 37 °C ± 2 deg. C in growth medium (MEM media containing 10% v/v FBS). At confluence, the cells were washed (3×) with PBS media before coating with an Opti-MEM solution containing a linearized construct (50 ng μg^−1) and lipofectamine (2.5 units ml^−1). After 24 h at 37 °C ± 2 deg. C, cells were washed (3×) with PBS before adding growth medium containing neomycin (400 μg ml^−1) to select transfectants. Selective growth medium was replenished every 48 h until single colonies could be isolated (∼3–6 weeks). Single colonies were transferred using trypsin digest (0.05%) to 12-well plates and grown at 37 °C ± 2 deg. C to confluence for further experimentation and storage.
(§4) Transfected Ishikawa cells were grown at 37 °C ± 2 deg. C to 60 to 70% confluency in MEM containing 10% v/v FBS. Cells were then transferred to 96-well tissue culture plates and grown at 37 °C ± 2 deg. C to 80% confluency in MEM containing 10% v/v charcoal filtered FBS. The plate was then washed with PBS and grown at 37 °C ± 2 deg. C for 24 h in MEM without FBS. Estradiol (0–3.0 μM) and OH-PCB (0–1.0 μM) solubilized in neat DMSO were added and cells were incubated at 37 °C ± 2 deg. C for 5 days. The final concentrations of DMSO were ≤0.10%. Cells were then washed twice with PBS before adding pNpp (5.0 mM) in PBS ([75]). Following incubation with pNpp for 3 h at 25 °C ± 2 deg. C, wells were read at 405 nm using a Synergy HT BioTek Plate Reader.

[2] = test system: estrogen receptor (ER) activation in Ishikawa cells expressing WT SULT1E1; assay: cells; format: cell-based, human; settings: Homo sapiens, Ishikawa; WT cell line; OH-PCB titration at 10 nM E2 (footnote a); parentheses = one SD; read-out: Ligand EC50, ER activation
Description: as §3, §4

[3] = test system: estrogen receptor (ER) activation in Ishikawa cells expressing F75A/F80A SULT1E1; assay: cells; format: cell-based, human; settings: Homo sapiens, Ishikawa; F75A/F80A cell line; OH-PCB titration at 10 nM E2 (footnote a); NE = No Effect; read-out: Ligand EC50, ER activation
Description: as §3, §4

[4] = noncompetitive inhibition model, parentheses = one SD

With `Oc1ccc(-c2c(Cl)cccc2Cl)cc1` [OH-PCB1, 4ʹ-OH-2,6-dichlorobiphenol] the “Fold Effect = Ki OH-PCB1/Ki OH-PCB1 WT” value (SULT1E1 F80A/F75A) was 113, the Ki (SULT1E1 F80A/F75A; [4]) was 6800 nM and the “Fold Effect = Ki OH-PCB1/Ki OH-PCB1 WT” value (SULT1E1 Y239A) was 5.7. It also gave a Ki (SULT1E1 Y239A; [4]) of 340 nM, a Kd (SULT1E1; E2 4.0 μM (higher partner concentration), PAP 300 μM, read-out: Kd, ligand binding to enzyme species E⋅PAP⋅E2) of 62 nM and a Kd (SULT1E1; E2 4.0 μM, no PAP, read-out: Kd, ligand binding to enzyme species E⋅E2) of 66 nM. For the same compound, the “fold tighter binding in the presence of the partner ligand (OH-PCB1/E2 interaction)” value (SULT1E1; OH-PCB1: E⋅E2 versus E, E2: E⋅PAP⋅OH-PCB1 versus E⋅PAP) was roughly 12 fold, the Kd (SULT1E1; PAP 300 μM, read-out: Kd, ligand binding to enzyme species E⋅PAP) was 780 nM and the Kd (SULT1E1; free enzyme E, read-out: Kd, ligand binding to enzyme species E) was 750 nM. It also gave an EC50 [1] greater than 1000 nM, an EC50 [2] of 38 nM and an EC50 [3] greater than 1000 nM.
